Earlier results on 2 molecules are cited in US9474689B2, “Delamination resistant pharmaceutical glass containers containing active pharmaceutical ingredients” (Corning Incorporated, priority 2011, dated 2016).

For one data set, the system named is P. aeruginosa. Particulars: against P. aeruginosa.
For a further data set, the system named is Enterobacteriaceae. Particulars: in vitro.
Data set [1] concerns soluble and transmembrane forms of TNFα.
Another data set deals with T1, TNFβ (lymphotoxin-α) (Homo sapiens, UniProt P01374).
T1 sequence (P01374 35-205): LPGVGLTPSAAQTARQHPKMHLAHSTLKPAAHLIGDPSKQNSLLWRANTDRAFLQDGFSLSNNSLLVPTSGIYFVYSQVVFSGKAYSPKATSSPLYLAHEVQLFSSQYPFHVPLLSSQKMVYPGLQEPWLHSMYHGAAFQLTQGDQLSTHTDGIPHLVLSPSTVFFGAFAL

Chain of soluble and transmembrane forms of TNFα (P01375 77-233 limits assumed): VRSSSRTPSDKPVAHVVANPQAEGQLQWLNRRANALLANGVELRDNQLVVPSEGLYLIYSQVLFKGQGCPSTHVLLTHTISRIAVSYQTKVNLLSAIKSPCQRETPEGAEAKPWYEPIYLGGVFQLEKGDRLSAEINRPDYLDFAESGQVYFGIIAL

On to `C[C@@H](O)[C@H]1C(=O)N2C(C(=O)O)=C(S[C@@H]3CN[C@H](CNS(N)(=O)=O)C3)[C@H](C)[C@H]12` [Doripenem, doripenem], for which the protein binding entry is “low protein binding”. Also, the “post-antibiotic effects in vitro” value with P. aeruginosa is “about two hours”. Moreover, the “activity against Enterobacteriaceae” value with Enterobacteriaceae was “excellent activity”.
Take “Infliximab: chimeric IgG1κ monoclonal antibody specific for human tumor necrosis factor-alpha”: the “binding affinity to TNFα” value in data set [1] is “high affinity”. Further, the “neutralization of TNFβ” value with TNFβ (lymphotoxin-α) is recorded as “does not neutralize”.
